Laboratory results reported in US9820997B2, “Pharmaceutical composition for treating disease associated with demyelination of neurons and method of using the pharmaceutical composition” (Samsung Electronics Co., Ltd., priority 2014, dated 2017).

How the values were obtained:
PMP22 = PMP22 protein amount in PMP22-overexpressing SH-SY5Y cells by Western blot; format: cell-based, human; details: for amount of the PMP22 protein compared to negative control and positive control (AA): FIGS. 5A/5B
Description: (§1) SH-SY5Y cells were inoculated at a concentration of 10^5 cells/ml in each well of a 12-well plate including 2 ml of a DMEM medium containing 10% FBS, 100 units/ml of penicillin, and 100 units/ml of streptomycin and incubated until the cell density was about 60% to about 65% in a 5% CO2 incubator at 37°. Then, dapsone (4,4′-diaminodiphenylsulfone, DDS) (available from Sigma), MADDS (available from Sigma), SSZ (available from Sigma), and SCM (available from Sigma) were respectively added to the wells at various concentrations and incubated for 24 hours under the same conditions. Vitamin C (ascorbic acid, AA) (available from Sigma) was used as the positive control group. Vitamin C is known as having an effect of treating peripheral neuropathy by using a cAMP modulator. SH-SY5Y cells are a human-derived cell line used in scientific research. The original cell line, SK-N-SH from which SH-SY5Y cells were subcloned, was isolated from a bone marrow biopsy taken from a person with neuroblastoma. SH-SY5Y cells are often used as in vitro models of neuronal function and differentiation. The SH-SY5Y cells used herein have been modified to consistently overexpress the human PMP22 gene by lentiviral mediated integration of PMP22 into a chromosome.
After removing 2 ml of the culture medium, the SH-SY5Y cells were washed with phosphate buffered saline (PBS), and a lysis solution, 0.5% Triton X-100, in PBS was added thereto. Then, cells were collected using a scraper, left in ice for 30 minutes, and then, the cells were disrupted. Using a bicinchoninic acid (BCA) protein assay, the amount of protein in each sample was normalized to 1 ug/ul. SDS-PAGE (Invitrogen) was performed on the sample, and then Western blotting was performed with rabbit anti-PMP22 (Novus biological) and rabbit anti-actin (Sigma) primary antibodies, and an anti-rabbit secondary antibody.

PMP22 mRNA = PMP22 mRNA expression in SH-SY5Y cells by RT-PCR; format: cell-based, human; details: according to DDS concentration; FIG. 2
Description: as §1, with “SH-SY5Y cells are often used as in vitro models of neuronal function and differentiation. The SH-SY5Y cells used herein have been modified to consistently overexpress the human PMP22 gene by lentiviral mediated integration of PMP22 into a chromosome.” left out
Also, RNA from treated and untreated SH-SY5Y cells was extracted by with Trizol (Invitrogen). PM22 gene expression was analyzed by using a one-step RT-PCR kit (Qiagen), whereby the extracted RNA was mixed with a PMP22 gene specific primer set of SEQ ID NOS: 1 and 2, and a real time-PCR (RT-PCR) was performed to confirm the degree of mRNA expression.

Zebrafish (Danio rerio) = assay: Remyelination in MTZ-demyelinated genetically engineered zebrafish, confocal fluorescence; format: in vivo; details: demyelinated central and peripheral nervous system; 10 uM
[1] = test system: Tr-J mice (CMT mouse model); assay: Rotarod test in mice; format: in vivo; details: 50 mg/kg per day orally for 2 months
[2] = test system: Tr-J mice (CMT mouse model); assay: Sciatic nerve morphology by toluidine blue staining and g-ratio; format: in vivo; details: 50 mg/kg, 2 months
Excerpt: In this example, the effect of sulfasalzine on the CMT was investigated using Trembler-J (Tr-J) mice. The Tr-J mouse has a missense mutation in the murine peripheral myelin protein-22 gene (Pmp22). Pmp22 mutations are believed to cause the neuropathies of Charcot-Marie-tooth disease in humans (Nature 356, 241-244 (19 Mar. 1992); doi:10.1038/356241a0). Two month old heterozygous Tr^J mice in the C57BL/6J background were obtained from Jackson Laboratories (Bar Harbor, Me.). Matings between Tr-J heterozygous females and males in the C57BL/6 genetic background were implemented to generate Tr-J heterozygous and wild-type controls.
Sulfasalazine was obtained from Sigma-Aldrich, St. Louis. Sulfasalazine (50 mg/kg daily) was administered orally to female mice (n=4-5 per group) via sulfasalazine-containing drinking water. Before sulfasalazine oral intervention, weight and daily water intake of the mice was measured to determine the dose of sulfasalazine. Each Tr-J and WT mice were administered sulfasalazine drinking water for 2 months (50 mg/kg daily).
After 2 months oral intervention, sciatic nerves were harvested from mice (WT+/−50 mg/kg sulfasalazine and Trembler J+/−50 mg/kg sulfasalazine). Nerves were fixed in 2% (w/v) glutaraldehyde in 0.1 M phosphate buffer (pH 7.4) for 4 h, followed by washing with 0.1 M phosphate buffer. […] Sample sections were evaluated using light microscopy.

[3] = test system: Tr-J mice (CMT mouse model); assay: Twitch/tetanus isometric force of soleus muscle; format: in vivo; details: 50 mg/kg, 2 months, vs placebo-treated mice, FIG. 11

SMILES: Nc1ccc(S(=O)(=O)c2ccc(N)cc2)cc1 [DDS, 4,4′-diaminodiphenylsulfone]
- amount of the PMP22 protein compared to negative control and positive control (AA) (PMP22): significantly decreased
- amount of PMP22 protein (PMP22; as the concentration of DDS increases, 24 hours, n=4, FIGS. 1A/1B): decreased
- expression of PM22 mRNA (PMP22 mRNA): did not show a significant difference
- effect on the promotion of remyelination (Zebrafish (Danio rerio)): confirmed

SMILES: CC(=O)Nc1ccc(S(=O)(=O)c2ccc(N)cc2)cc1 [MADDS, mono N-acetyldapsone]
- amount of the PMP22 protein compared to negative control and positive control (AA) (PMP22): significantly decreased
- effect on the promotion of remyelination (Zebrafish (Danio rerio)): confirmed

SMILES: O=C(O)c1cc(/N=N/c2ccc(S(=O)(=O)Nc3ccccn3)cc2)ccc1O [SSZ]
- effect on the promotion of remyelination (Zebrafish (Danio rerio)): confirmed
- time on rod ([1]; Tr-J mice, vs placebo-treated Tr-J mice): significantly increased
- time on rod ([1]; WT mice, vs placebo-treated WT mice): decreased
- g-ratio of sciatic nerve ([2]; Tr-J mice, vs vehicle treated Tr-J mice, FIG. 10C): significantly lower
- number of myelinated axons in sciatic nerve ([2]; Tr-J mouse, vs vehicle-treated Tr-J mouse, FIG. 10A): significantly increased
- tetanus contraction in Soleus tendon [3]: significantly increased
- twitch contraction in Soleus tendon [3]: significantly increased

SMILES: CC(=O)NS(=O)(=O)c1ccc(N)cc1 [SCM, N-[(4-aminophenyl)sulfonyl]acetamide]
- amount of the PMP22 protein compared to the control group (PMP22; vs DMSO control, FIGS. 4A/4B): decreased
- effect on the promotion of remyelination (Zebrafish (Danio rerio)): confirmed
